Data taken from PMC12281424, “A Rac-specific competitive inhibitor of guanine nucleotide binding reduces metastasis in triple-negative breast cancer” (Cell Reports Medicine, 2025).
pIC50: −log10 of the molar value.

Tests used:
[1] = tested on: RAC1-GTP levels in MDA-MB-468 Luc cells; assay: RAC-GTP immunofluorescence; assay type: cell-based
Protocol: Luciferase (Luc, green) was used to detect the cells. […] (C) Quantification of colony number of indicated cancer cell lines in the presence of A41 (10 μM) expressed as the percentage of control in the absence of A41. […] (D) Immunoblot analysis and corresponding quantification of AKT and P44/42 expression and phosphorylation (pAKT, p44/42) in MDA-MB-468 Luc cells in the absence (−) and presence of NSC23766 or A41 (1 h at 10^−5 M). […] (E) 3D invasion assay of MDA-MB-468 Luc and cancer-associated fibroblasts (CAFs) and corresponding quantification (scale bars: 200 μm).
After indicated treatments, cells were fixed with 4% paraformaldehyde and permeabilized in PBS 0.5% Triton X-100. To assess RAC1 activity, cells were then incubated with RAC-GTP antibody (26903, NewEast Biosciences, King of Prussia, Pa) (dilution 1/500) overnight at room temperature, followed by secondary Alexa 568-labeled anti-mouse antibody (dilution 1/1000). Cancer cells were detected with firefly luciferase antibody (ab21176, Abcam) (dilution 1/500) overnight at room temperature, followed by secondary Alexa 488-labeled anti-rabbit antibody (dilution 1/1000). To assess cytoskeleton organization, cells were incubated with Alexa Fluor 488 phalloidin (A12379, Invitrogen) to visualize F-actin. After staining, cells were mounted in Prolong gold antifade reagent with DAPI and images were captured by a fluorescence microscope.

CK1γ1(h) = CK1γ1(h) (Homo sapiens, UniProt Q9HCP0); assay: Kinase Profiler; assay type: biochemical
Protocol: (§1) Blood cell counts, kinase profiler, safety screen, bacterial cytotoxicity, Ames, micronucleus assays were performed by the company Eurofins (France). The kinase profiler was performed by the company Eurofins (Discovery, Panlab and Cerep).

cKit(D816V)(h) = cKit(D816V)(h) (Homo sapiens, UniProt P10721, D816V); assay: Kinase Profiler; assay type: biochemical
Protocol: as §1

MAK(h) = MAK(h) (Homo sapiens, UniProt P20794); assay: Kinase Profiler; assay type: biochemical
Protocol: (§2) The kinase profiler was performed by the company Eurofins (Discovery, Panlab and Cerep).

Met(D1246H)(h) = Met(D1246H)(h) (Homo sapiens, UniProt P08581, D1228H); assay: Kinase Profiler; assay type: biochemical
Protocol: as §2

SRPK2(h) = SRPK2(h) (Homo sapiens, UniProt P78362); assay: Kinase Profiler; assay type: biochemical
Protocol: as §2

TAF1L(h) = TAF1L(h) (Homo sapiens, UniProt Q8IZX4); assay: Kinase Profiler; assay type: biochemical
Protocol: as §2

TRB2(h) = TRB2(h) (Homo sapiens, UniProt Q92519); assay: Kinase Profiler; assay type: biochemical
Protocol: as §2

WNK2(h) = WNK2(h) (Homo sapiens, UniProt Q9Y3S1); assay: Kinase Profiler; assay type: biochemical
Sequence of WNK2(h) (Q9Y3S1 whole entry): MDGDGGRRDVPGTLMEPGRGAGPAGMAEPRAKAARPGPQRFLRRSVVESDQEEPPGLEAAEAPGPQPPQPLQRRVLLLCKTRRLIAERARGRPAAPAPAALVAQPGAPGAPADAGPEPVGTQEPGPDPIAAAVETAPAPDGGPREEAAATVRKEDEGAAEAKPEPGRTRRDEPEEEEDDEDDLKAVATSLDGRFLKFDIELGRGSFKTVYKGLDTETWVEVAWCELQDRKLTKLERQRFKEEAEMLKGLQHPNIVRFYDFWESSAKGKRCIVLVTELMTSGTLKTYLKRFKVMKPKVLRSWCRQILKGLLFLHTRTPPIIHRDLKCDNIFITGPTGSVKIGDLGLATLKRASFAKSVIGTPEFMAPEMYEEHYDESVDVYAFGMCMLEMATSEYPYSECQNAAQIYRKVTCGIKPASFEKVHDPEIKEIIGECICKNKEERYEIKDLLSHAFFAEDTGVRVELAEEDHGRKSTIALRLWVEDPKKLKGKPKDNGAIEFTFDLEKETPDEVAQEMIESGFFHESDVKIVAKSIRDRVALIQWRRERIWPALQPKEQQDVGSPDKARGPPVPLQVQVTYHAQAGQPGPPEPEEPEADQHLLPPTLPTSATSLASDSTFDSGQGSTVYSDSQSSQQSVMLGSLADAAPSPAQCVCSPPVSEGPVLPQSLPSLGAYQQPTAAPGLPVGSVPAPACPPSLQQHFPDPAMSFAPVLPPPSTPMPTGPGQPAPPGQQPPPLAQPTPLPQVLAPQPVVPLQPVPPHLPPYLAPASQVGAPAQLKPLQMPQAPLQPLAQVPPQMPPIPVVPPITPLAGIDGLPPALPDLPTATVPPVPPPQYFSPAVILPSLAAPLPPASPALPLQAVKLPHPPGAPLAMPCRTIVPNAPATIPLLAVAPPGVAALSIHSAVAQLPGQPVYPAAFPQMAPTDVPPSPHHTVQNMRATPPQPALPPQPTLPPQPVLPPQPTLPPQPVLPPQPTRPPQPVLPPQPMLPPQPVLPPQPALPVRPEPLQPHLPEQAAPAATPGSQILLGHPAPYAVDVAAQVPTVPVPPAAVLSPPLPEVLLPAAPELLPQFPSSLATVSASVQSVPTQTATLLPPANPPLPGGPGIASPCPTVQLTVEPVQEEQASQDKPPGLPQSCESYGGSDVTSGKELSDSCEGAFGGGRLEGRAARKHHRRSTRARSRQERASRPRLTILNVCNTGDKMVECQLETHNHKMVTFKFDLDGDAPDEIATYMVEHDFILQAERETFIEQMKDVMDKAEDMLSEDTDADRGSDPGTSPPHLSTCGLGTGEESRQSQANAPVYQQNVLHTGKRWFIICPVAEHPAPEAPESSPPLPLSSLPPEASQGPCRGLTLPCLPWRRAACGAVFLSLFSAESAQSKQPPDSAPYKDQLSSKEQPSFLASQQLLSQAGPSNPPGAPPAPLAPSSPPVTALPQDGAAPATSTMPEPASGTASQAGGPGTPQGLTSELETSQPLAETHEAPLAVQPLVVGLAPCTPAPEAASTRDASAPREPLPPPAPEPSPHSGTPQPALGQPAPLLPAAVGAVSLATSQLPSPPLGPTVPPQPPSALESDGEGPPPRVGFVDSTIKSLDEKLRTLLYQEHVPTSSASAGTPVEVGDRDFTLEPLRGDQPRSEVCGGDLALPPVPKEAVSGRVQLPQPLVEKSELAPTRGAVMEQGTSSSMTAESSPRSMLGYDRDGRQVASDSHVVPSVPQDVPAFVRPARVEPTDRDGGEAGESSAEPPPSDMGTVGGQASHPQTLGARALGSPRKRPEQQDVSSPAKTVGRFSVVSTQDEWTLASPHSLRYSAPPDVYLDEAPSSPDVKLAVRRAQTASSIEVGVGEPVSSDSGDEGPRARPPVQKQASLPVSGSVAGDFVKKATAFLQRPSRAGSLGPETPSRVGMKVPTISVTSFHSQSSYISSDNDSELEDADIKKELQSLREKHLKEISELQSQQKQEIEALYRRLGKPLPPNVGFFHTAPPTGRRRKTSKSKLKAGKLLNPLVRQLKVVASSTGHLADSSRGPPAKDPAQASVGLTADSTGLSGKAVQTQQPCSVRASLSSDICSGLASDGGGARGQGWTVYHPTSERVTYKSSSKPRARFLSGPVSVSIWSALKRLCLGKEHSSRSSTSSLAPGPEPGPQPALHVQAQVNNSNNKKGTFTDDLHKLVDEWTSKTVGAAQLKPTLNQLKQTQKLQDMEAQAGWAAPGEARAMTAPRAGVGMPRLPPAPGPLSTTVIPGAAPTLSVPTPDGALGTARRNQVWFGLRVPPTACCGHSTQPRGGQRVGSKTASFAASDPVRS
Protocol: as §2

Sequence of MAK(h) (P20794 whole entry): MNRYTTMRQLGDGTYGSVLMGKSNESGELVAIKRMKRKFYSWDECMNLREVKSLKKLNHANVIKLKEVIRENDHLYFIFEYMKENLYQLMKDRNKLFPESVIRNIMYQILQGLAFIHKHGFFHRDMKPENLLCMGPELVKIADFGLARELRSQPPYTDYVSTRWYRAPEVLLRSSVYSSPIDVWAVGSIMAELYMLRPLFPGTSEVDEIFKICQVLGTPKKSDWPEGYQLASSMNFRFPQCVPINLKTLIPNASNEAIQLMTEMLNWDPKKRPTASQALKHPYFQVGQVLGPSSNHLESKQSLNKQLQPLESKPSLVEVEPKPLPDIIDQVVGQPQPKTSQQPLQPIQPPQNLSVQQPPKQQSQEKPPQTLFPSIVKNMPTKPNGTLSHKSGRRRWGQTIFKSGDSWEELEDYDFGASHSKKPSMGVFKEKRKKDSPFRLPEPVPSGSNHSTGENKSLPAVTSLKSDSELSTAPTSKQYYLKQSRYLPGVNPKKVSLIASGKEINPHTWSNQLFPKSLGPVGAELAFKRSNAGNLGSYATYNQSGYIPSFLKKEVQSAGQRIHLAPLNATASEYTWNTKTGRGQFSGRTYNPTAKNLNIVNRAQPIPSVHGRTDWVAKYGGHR
Sequence of SRPK2(h) (P78362 whole entry): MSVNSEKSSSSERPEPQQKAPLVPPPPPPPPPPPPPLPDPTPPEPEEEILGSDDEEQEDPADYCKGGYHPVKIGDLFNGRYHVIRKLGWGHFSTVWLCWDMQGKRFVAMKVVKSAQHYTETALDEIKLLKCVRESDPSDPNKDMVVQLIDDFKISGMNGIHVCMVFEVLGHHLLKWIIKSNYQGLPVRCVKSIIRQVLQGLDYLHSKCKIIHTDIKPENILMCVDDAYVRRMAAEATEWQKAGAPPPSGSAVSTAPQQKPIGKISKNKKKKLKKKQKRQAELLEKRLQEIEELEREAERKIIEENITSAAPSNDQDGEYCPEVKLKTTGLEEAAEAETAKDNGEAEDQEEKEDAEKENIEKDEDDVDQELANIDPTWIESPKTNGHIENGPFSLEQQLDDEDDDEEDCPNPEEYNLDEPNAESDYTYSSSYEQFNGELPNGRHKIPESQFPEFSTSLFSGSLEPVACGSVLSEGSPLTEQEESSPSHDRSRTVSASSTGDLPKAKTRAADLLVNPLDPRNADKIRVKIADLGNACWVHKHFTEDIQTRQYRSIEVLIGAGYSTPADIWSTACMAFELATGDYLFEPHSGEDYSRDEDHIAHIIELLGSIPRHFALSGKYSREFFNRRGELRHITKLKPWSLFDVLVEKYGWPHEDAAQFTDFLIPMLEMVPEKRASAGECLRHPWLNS
Sequence of TRB2(h) (Q92519 whole entry): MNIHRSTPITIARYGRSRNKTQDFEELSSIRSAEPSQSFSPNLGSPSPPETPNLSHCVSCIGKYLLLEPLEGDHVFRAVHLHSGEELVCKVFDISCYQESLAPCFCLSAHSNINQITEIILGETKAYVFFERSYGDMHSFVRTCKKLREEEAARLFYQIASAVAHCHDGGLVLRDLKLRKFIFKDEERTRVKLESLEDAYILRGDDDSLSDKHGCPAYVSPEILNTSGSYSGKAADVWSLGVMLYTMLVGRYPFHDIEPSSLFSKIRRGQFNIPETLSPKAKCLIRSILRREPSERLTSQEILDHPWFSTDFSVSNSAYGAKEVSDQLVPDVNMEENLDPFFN
Sequence of CK1γ1(h) (Q9HCP0 whole entry): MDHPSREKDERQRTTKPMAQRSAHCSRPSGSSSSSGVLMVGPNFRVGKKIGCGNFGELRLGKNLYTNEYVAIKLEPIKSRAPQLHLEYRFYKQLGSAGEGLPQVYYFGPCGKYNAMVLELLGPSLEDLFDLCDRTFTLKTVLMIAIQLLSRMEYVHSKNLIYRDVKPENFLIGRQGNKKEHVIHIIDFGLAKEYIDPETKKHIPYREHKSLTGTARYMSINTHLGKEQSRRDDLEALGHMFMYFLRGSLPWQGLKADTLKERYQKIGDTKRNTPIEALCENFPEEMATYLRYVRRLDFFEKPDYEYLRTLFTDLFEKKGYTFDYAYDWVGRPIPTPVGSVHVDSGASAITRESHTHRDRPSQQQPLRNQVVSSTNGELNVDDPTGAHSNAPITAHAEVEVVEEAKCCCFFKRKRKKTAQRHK

COc1ccc(OC)c(NS(=O)(=O)c2ccc(NC(=O)CCSc3ccc(C)cc3)cc2)c1 [Compound A41]
decrease of active RAC1-GTP levels ([1]; 10^-5 M, 1 h): more than 50% | pIC50 ([1]; dose-response curve, Figure 5A): 6.09 | Activity(%) (CK1γ1(h)): 106% | Activity(%) (cKit(D816V)(h)): 88% | Activity(%) (MAK(h)): 117% | Activity(%) (Met(D1246H)(h)): 115% | Activity(%) (SRPK2(h)): 96% | Activity(%) (TAF1L(h)): 110% | Activity(%) (TRB2(h)): 104% | Activity(%) (WNK2(h)): 90%
